Measurements published in patent US20250289789A1, “REVERSIBLE LYSINE COVALENT MODIFIERS OF CDK2 AND USES THEREOF” (Terremoto Biosciences, Inc., priority 2023, published 2025).
pIC50: −log10 of the molar value. Like-named read-outs stand apart in the source and are kept apart here.

Tests used:
Type in all cases: cell-based
[1] = test system: Phospho-Rb Ser807/811 in OVCAR3 cells; experiment: OVCAR3 Phospho-Rb Ser807/811 HTRF assay; conditions: Homo sapiens, OVCAR-3, 1 h, read-out: pRb-OVCAR3 IC50
Description: Cells were trypsinized and resuspended in 1 mM hydroxyurea (Sigma; H8627), 90% RPMI and 10% fetal bovine serum. […] Dose response curve normalized to DMSO control was plotted using four-parameter logistic model for IC50 calculation.

[2] = biological target: T1, CDK1-NanoLuc fusion with CCNB1 in 293T or 293 cells (Homo sapiens, UniProt P06493); experiment: NanoBRET Target Engagement (TE) Intracellular Kinase Assay, CDK1/CCNB1; conditions: NanoBRET TE intracellular kinase assay, 2-hour incubation, read-out: NanoBRET-CDK1/B1 IC50
T1 construct: host or cells: 293T (ATCC CRL-3216) or 293 (ATCC CRL-1573)
T1 sequence (P06493 whole entry, the tested form may be a part): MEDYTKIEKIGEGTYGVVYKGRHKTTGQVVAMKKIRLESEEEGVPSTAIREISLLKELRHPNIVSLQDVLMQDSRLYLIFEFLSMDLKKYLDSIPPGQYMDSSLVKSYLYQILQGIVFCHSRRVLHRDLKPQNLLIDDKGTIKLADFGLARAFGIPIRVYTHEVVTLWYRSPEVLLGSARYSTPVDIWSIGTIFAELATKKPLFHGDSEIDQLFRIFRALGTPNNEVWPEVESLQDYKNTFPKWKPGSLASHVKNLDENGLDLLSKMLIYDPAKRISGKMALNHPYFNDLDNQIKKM
T1 sequence (P14635 whole entry partner, the tested form may be a part): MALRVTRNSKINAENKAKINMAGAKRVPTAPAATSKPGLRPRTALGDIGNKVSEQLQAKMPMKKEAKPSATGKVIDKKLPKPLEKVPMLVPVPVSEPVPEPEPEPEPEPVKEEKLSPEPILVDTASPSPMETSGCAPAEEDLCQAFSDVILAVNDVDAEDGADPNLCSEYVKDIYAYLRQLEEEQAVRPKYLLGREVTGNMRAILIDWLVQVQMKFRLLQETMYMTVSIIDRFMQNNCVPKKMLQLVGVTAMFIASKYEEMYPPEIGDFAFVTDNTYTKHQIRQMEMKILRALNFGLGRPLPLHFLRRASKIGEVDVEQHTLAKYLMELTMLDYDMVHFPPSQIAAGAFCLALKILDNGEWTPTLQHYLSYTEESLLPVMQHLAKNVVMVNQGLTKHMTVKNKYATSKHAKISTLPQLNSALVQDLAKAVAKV
Method in brief: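 293T or 293 cells co-transfected with CDK1-NanoLuc and CCNB1 vectors, incubated 24 h, then exposed to NanoBRET Tracer K-10 plus compound for 2 h at 37° C. BRET ratio (610/450 nm) normalized to DMSO; IC50 from four-parameter logistic fit.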

[3] = biological target: T2, CDK2-NanoLuc fusion with CCNE1 in 293T or 293 cells (Homo sapiens, UniProt P24941); experiment: NanoBRET Target Engagement (TE) Intracellular Kinase Assay, CDK2/CCNE1; conditions: NanoBRET TE intracellular kinase assay, 2-hour incubation, read-out: NanoBRET-CDK2/E1 IC50
T2 construct: host or cells: 293T (ATCC CRL-3216) or 293 (ATCC CRL-1573)

[4] = biological target: T3, CDK4-NanoLuc fusion with CCND1 in 293T or 293 cells (Homo sapiens, UniProt P11802); experiment: NanoBRET Target Engagement (TE) Intracellular Kinase Assay, CDK4/CCND1; conditions: NanoBRET TE intracellular kinase assay, 2-hour incubation, read-out: NanoBRET-CDK4/D1 IC50
T3 construct: host or cells: 293T (ATCC CRL-3216) or 293 (ATCC CRL-1573)
T3 sequence (P11802 whole entry, the tested form may be a part): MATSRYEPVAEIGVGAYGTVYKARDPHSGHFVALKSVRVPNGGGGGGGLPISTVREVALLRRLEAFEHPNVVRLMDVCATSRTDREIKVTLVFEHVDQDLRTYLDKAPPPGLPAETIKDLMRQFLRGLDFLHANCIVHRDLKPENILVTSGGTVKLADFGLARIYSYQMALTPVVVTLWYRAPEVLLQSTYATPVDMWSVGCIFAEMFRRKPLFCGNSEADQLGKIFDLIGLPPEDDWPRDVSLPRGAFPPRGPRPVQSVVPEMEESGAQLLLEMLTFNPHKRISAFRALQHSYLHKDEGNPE
T3 sequence (P24385 whole entry partner, the tested form may be a part): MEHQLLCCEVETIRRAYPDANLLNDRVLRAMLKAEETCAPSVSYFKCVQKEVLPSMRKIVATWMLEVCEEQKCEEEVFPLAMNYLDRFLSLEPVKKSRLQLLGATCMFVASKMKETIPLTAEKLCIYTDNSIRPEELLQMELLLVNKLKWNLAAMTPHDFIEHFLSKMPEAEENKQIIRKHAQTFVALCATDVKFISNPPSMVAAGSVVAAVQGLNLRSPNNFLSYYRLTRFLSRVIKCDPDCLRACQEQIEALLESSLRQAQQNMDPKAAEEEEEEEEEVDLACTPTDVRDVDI

[5] = OVCAR3 cells, Phospho-Rb Ser807/811 HTRF, 1 hour incubation

Structure (SMILES) | pIC50 [1, 5] | pIC50 [2] | pIC50 [3] | pIC50 [4] | pIC50 [1]
CC(C)NC(=O)O[C@@H]1CC[C@H](c2cc(NC(=O)Cc3cnc(-c4cccc(O)c4C=O)s3)n[nH]2)C1 [Compound 67, (1R,3S)-3-(3-(2-(2-(2-formyl-3-hydroxyphenyl)thiazol-5-yl)acetamido)-1H-pyrazol-5-yl)cyclopentyl isopropylcarbamate; trifluoroacetic acid] | 6.32 | 7.45 | 8.17 | 6.69 | –
CC(C)NC(=O)O[C@@H]1CC[C@H](c2cc(NC(=O)Cc3ccc(-c4cccc(O)c4C=O)cc3)n[nH]2)C1 [Compound 68, (1R,3S)-3-[5-(2-{2′-formyl-3′-hydroxy-[1,1′-biphenyl]-4-yl}acetamido)-2H-pyrazol-3-yl]cyclopentyl N-isopropylcarbamate; trifluoroacetic acid] | 6.18 | 7.41 | 8.25 | 5.94 | –
Cc1ncc(Oc2cccc(O)c2C=O)nc1C(=O)Nc1cc([C@H]2CC[C@@H](OC(=O)NC(C)C)C2)[nH]n1 [Compound 70, (1R,3S)-3-{5-[6-(2-formyl-3-hydroxyphenoxy)-3-methylpyrazine-2-amido]-2H-pyrazol-3-yl}cyclopentyl N-isopropylcarbamate] | 5.57 | 6.47 | 8.00 | 6.16 | –
COCc1cc(O)c(C=O)c(-c2cc(C(=O)Nc3cc([C@H]4CC[C@@H](OC(=O)NC(C)C)C4)[nH]n3)n(C)n2)c1 [Compound 71, (1R,3S)-3-(5-{5-[2-formyl-3-hydroxy-5-(methoxymethyl)phenyl]-2-methylpyrazole-3-amido}-2H-pyrazol-3-yl)cyclopentyl N-isopropylcarbamate; trifluoroacetic acid] | 7.07 | 7.99 | 8.11 | 5.39 | –
COCc1cc(O)c(C=O)c(OCC(=O)Nc2cc([C@H]3CC[C@@H](OC(=O)NC(C)C)C3)[nH]n2)c1 [Compound 72, (1R,3S)-3-(3-(2-(2-formyl-3-hydroxy-5-(methoxymethyl)phenoxy)acetamido)-1H-pyrazol-5-yl)cyclopentyl isopropylcarbamate] | 6.32 | 6.36 | 8.08 | < 5.00 | –
CC(C)NC(=O)O[C@@H]1CC[C@H](c2cc(NC(=O)COc3cc(Cl)cc(O)c3C=O)n[nH]2)C1 [Compound 73, (1R,3S)-3-(3-(2-(5-chloro-2-formyl-3-hydroxyphenoxy)acetamido)-1H-pyrazol-5-yl)cyclopentyl isopropylcarbamate] | 6.52 | 7.21 | 7.57 | < 5.00 | –
COc1ccc(-c2cc(C(=O)Nc3cc([C@H]4CC[C@@H](OC(=O)NC(C)C)C4)[nH]n3)n(C)n2)c(C=O)c1O [Compound 74, (1R,3S)-3-{5-[5-(2-formyl-3-hydroxy-4-methoxyphenyl)-2-methylpyrazole-3-amido]-2H-pyrazol-3-yl}cyclopentyl N-isopropylcarbamate; trifluoroacetic acid] | 6.28 | 7.53 | 8.15 | 5.40 | –
CC(C)NC(=O)O[C@@H]1CC[C@H](c2cc(Nc3cc(C#Cc4cccc(O)c4C=O)ccn3)n[nH]2)C1 [Compound 75, (1R,3S)-3-[5-({4-[2-(2-formyl-3-hydroxyphenyl)ethynyl]pyridin-2-yl}amino)-2H-pyrazol-3-yl]cyclopentyl N-isopropylcarbamate; trifluoroacetic acid] | 5.30 | 6.43 | 7.67 | 6.65 | –
COc1cc(O)c(C=O)c(Oc2ccnc(Nc3cc([C@H]4CC[C@@H](OC(=O)NC(C)C)C4)[nH]n3)c2)c1 [Compound 76, (1R,3S)-3-(3-((4-(2-formyl-3-hydroxy-5-methoxyphenoxy) 476yridine-2-yl)amino)-1H-pyrazol-5-yl)cyclopentyl isopropylcarbamate] | 6.51 | 7.18 | 8.30 | 5.19 | –
COc1cc(O)c(C=O)c(OCc2cc(C(=O)Nc3cc([C@H]4CC[C@@H](OC(=O)NC(C)C)C4)[nH]n3)n(C)n2)c1 [Compound 77] | 7.33 | 8.05 | 8.52 | 7.35 | –
CC(C)NC(=O)O[C@@H]1CC[C@H](c2cc(NC(=O)N3CC=C(c4cccc(O)c4C=O)C3)n[nH]2)C1 [Compound 78, (1R,3S)-3-(3-(3-(2-formyl-3-hydroxyphenyl)-2,5-dihydro-1H-pyrrole-1-carboxamido)-1H-pyrazol-5-yl)cyclopentyl isopropylcarbamate] | 5.92 | 6.85 | 7.78 | < 5.00 | –
COc1cc(O)c(C=O)c(-n2cc(CC(=O)Nc3cc([C@H]4CC[C@@H](OC(=O)NC(C)C)C4)[nH]n3)cn2)c1 [Compound 79, (1R,3S)-3-(5-{2-[1-(2-formyl-3-hydroxy-5-methoxyphenyl)pyrazol-4-yl]acetamido}-2H-pyrazol-3-yl) cyclopentyl N-isopropylcarbamate] | – | 7.33 | 7.85 | 6.14 | 6.30
COc1ccc(OCC(=O)Nc2cc([C@H]3CC[C@@H](OC(=O)NC(C)C)C3)[nH]n2)c(C=O)c1O [Compound 80, (1R,3S)-3-{5-[2-(2-formyl-3-hydroxy-4-methoxyphenoxy)acetamido]-2H-pyrazol-3-yl}cyclopentyl N-isopropylcarbamate] | 6.88 | 7.43 | 7.60 | < 5.00 | –
CCCNC(=O)O[C@@H]1CC[C@H](c2cc(NC(=O)COc3cccc(O)c3C=O)n[nH]2)C1 [Compound 81, (1R,3S)-3-{5-[2-(2-formyl-3-hydroxyphenoxy)acetamido]-2H-pyrazol-3-yl}cyclopentyl N-propylcarbamate; trifluoroacetic acid] | 6.92 | 7.73 | 8.64 | < 5.00 | –
CC1(NC(=O)O[C@@H]2CC[C@H](c3cc(NC(=O)COc4cccc(O)c4C=O)n[nH]3)C2)CCC1 [Compound 83, (1R,3S)-3-{5-[2-(2-formyl-3-hydroxyphenoxy)acetamido]-2H-pyrazol-3-yl}cyclopentyl N-(1-methylcyclobutyl) carbamate; trifluoroacetic acid] | 7.08 | 8.21 | 8.32 | 5.60 | –
CC(C)(C)NC(=O)O[C@@H]1CC[C@H](c2cc(NC(=O)COc3cccc(O)c3C=O)n[nH]2)C1 [Compound 84, (1R,3S)-3-(3-(2-(2-formyl-3-hydroxyphenoxy)acetamido)-1H-pyrazol-5-yl)cyclopentyl tert-butylcarbamate] | 6.64 | 7.82 | 8.23 | 5.28 | –
O=Cc1c(O)cccc1OCC(=O)Nc1cc([C@H]2CC[C@@H](OC(=O)N3CCCC3)C2)[nH]n1 [Compound 85, (1R,3S)-3-{5-[2-(2-formyl-3-hydroxyphenoxy)acetamido]-2H-pyrazol-3-yl}cyclopentyl pyrrolidine-1-carboxylate] | 6.75 | 7.63 | 8.59 | < 5.00 | –
O=Cc1c(O)cccc1OCC(=O)Nc1cc([C@H]2CC[C@@H](OC(=O)NC3CC3)C2)[nH]n1 [Compound 86, (1R,3S)-3-(3-(2-(2-formyl-3-hydroxyphenoxy)acetamido)-1H-pyrazol-5-yl)cyclopentyl cyclopropylcarbamate] | 6.67 | 7.49 | 8.43 | < 5.00 | –
O=Cc1c(O)cccc1OCC(=O)Nc1cc([C@H]2CC[C@@H](OC(=O)NC3CCC3)C2)[nH]n1 [Compound 87, (1R,3S)-3-(3-(2-(2-formyl-3-hydroxyphenoxy)acetamido)-1H-pyrazol-5-yl)cyclopentyl cyclobutylcarbamate] | 6.68 | 7.61 | 8.56 | 5.01 | –
O=Cc1c(O)cccc1OCC(=O)Nc1cc([C@H]2CC[C@@H](OC(=O)NC3CCCC3)C2)[nH]n1 [Compound 88, (1R,3S)-3-(3-(2-(2-formyl-3-hydroxyphenoxy)acetamido)-1H-pyrazol-5-yl)cyclopentyl cyclopentylcarbamate] | 6.64 | 7.38 | 8.46 | < 5.00 | –
CC(C)NC(=O)O[C@@H]1CC[C@H](c2cc(NC(=O)C3CCN(c4cccc(O)c4C=O)CC3)n[nH]2)C1 [Compound 92, (1R,3S)-3-{5-[1-(2-formyl-3-hydroxyphenyl)piperidine-4-amido]-2H-pyrazol-3-yl}cyclopentyl N-isopropylcarbamate] | 5.62 | 6.56 | 7.79 | 5.42 | –
CC(C)NC(=O)O[C@@H]1CC[C@H](c2cc(NC(=O)C3CCN(c4cccc(O)c4C=O)C3)n[nH]2)C1 (stereo partly drawn) [Compound 93, (1R,3S)-3-{5-[1-(2-formyl-3-hydroxyphenyl)pyrrolidine-3-amido]-2H-pyrazol-3-yl}cyclopentyl N-isopropylcarbamate] | 6.41 | 6.77 | 8.07 | 5.64 | –
